# Measured values reported in PubChem BioAssay (NCI).
#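 GI50: concentration for 50% inhibition of growth. TGI marks complete inhibition of growth.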
# Legend:
# Assay in all cases: inhibition of tumour cell growth, NCI panel, 384-well format
# 786-0 renal = system: 786-0 renal
# A498 renal = system: A498 renal
# A549 NSCLC = system: A549 NSCLC
# ACHN renal = system: ACHN renal
# BT-549 breast = system: BT-549 breast
# CAKI-1 renal = system: CAKI-1 renal
# CCRF-CEM leukemia = system: CCRF-CEM leukemia
# DU-145 prostate = system: DU-145 prostate
# EKVX NSCLC = system: EKVX NSCLC
# HCT-116 colon = system: HCT-116 colon
# HCT-15 colon = system: HCT-15 colon
# HL-60(TB) leukemia = system: HL-60(TB) leukemia
# HOP-62 NSCLC = system: HOP-62 NSCLC
# HOP-92 NSCLC = system: HOP-92 NSCLC
# HS 578T breast = system: HS 578T breast
# HT29 colon = system: HT29 colon
# IGROV1 ovarian = system: IGROV1 ovarian
# K-562 leukemia = system: K-562 leukemia
# KM12 colon = system: KM12 colon
# LOX IMVI melanoma = system: LOX IMVI melanoma
# M14 melanoma = system: M14 melanoma
# MALME-3M melanoma = system: MALME-3M melanoma
# MCF7 breast = system: MCF7 breast
# MDA-MB-231 breast = system: MDA-MB-231 breast
# MDA-MB-435 melanoma = system: MDA-MB-435 melanoma
# MDA-MB-468 breast = system: MDA-MB-468 breast
# MOLT-4 leukemia = system: MOLT-4 leukemia
# NCI-H226 lung = system: NCI-H226 lung
# NCI-H23 lung = system: NCI-H23 lung
# NCI-H322M lung = system: NCI-H322M lung
# NCI-H522 lung = system: NCI-H522 lung
# NCI/ADR-RES ovarian = system: NCI/ADR-RES ovarian
# OVCAR-3 ovarian = system: OVCAR-3 ovarian
# OVCAR-4 ovarian = system: OVCAR-4 ovarian
# OVCAR-5 ovarian = system: OVCAR-5 ovarian
# OVCAR-8 ovarian = system: OVCAR-8 ovarian
# PC-3 prostate = system: PC-3 prostate
# RPMI-8226 leukemia = system: RPMI-8226 leukemia
# RXF 393 renal = system: RXF 393 renal
# SF-268 CNS = system: SF-268 CNS
# SF-295 CNS = system: SF-295 CNS
# SF-539 CNS = system: SF-539 CNS
# SK-MEL-2 melanoma = system: SK-MEL-2 melanoma
# SK-MEL-28 melanoma = system: SK-MEL-28 melanoma
# SK-OV-3 ovarian = system: SK-OV-3 ovarian
# SN12C renal = system: SN12C renal
# SNB-19 CNS = system: SNB-19 CNS
# SNB-75 CNS = system: SNB-75 CNS
# SW-620 colon = system: SW-620 colon
# T-47D breast = system: T-47D breast
# TK-10 renal = system: TK-10 renal
# U251 glioblastoma = system: U251 glioblastoma
# UACC-257 melanoma = system: UACC-257 melanoma
# UACC-62 melanoma = system: UACC-62 melanoma
# UO-31 renal = system: UO-31 renal
smiles,measurement,setting,value
O=C1CCC(N2C(=O)c3ccccc3C2=O)C(=O)N1 (stereo not given),GI50,786-0 renal,> 100 µM
same,TGI,786-0 renal,> 100 µM
same,GI50,A498 renal,> 100 µM
same,TGI,A498 renal,> 100 µM
same,GI50,A549 NSCLC,> 100 µM
same,TGI,A549 NSCLC,> 100 µM
same,GI50,ACHN renal,> 100 µM
same,TGI,ACHN renal,> 100 µM
same,GI50,BT-549 breast,> 100 µM
same,TGI,BT-549 breast,> 100 µM
same,GI50,CAKI-1 renal,> 100 µM
same,TGI,CAKI-1 renal,> 100 µM
same,GI50,CCRF-CEM leukemia,> 100 µM
same,TGI,CCRF-CEM leukemia,> 100 µM
same,GI50,DU-145 prostate,> 100 µM
same,TGI,DU-145 prostate,> 100 µM
same,GI50,EKVX NSCLC,> 100 µM
same,TGI,EKVX NSCLC,> 100 µM
same,GI50,HCT-116 colon,> 100 µM
same,TGI,HCT-116 colon,> 100 µM
same,GI50,HCT-15 colon,> 100 µM
same,TGI,HCT-15 colon,> 100 µM
same,GI50,HL-60(TB) leukemia,> 100 µM
same,TGI,HL-60(TB) leukemia,> 100 µM
same,GI50,HOP-62 NSCLC,> 100 µM
same,TGI,HOP-62 NSCLC,> 100 µM
same,GI50,HOP-92 NSCLC,> 100 µM
same,TGI,HOP-92 NSCLC,> 100 µM
same,GI50,HS 578T breast,> 100 µM
same,TGI,HS 578T breast,> 100 µM
same,GI50,HT29 colon,> 100 µM
same,TGI,HT29 colon,> 100 µM
same,GI50,IGROV1 ovarian,> 100 µM
same,TGI,IGROV1 ovarian,> 100 µM
same,GI50,K-562 leukemia,> 100 µM
same,TGI,K-562 leukemia,> 100 µM
same,GI50,KM12 colon,> 100 µM
same,TGI,KM12 colon,> 100 µM
same,GI50,LOX IMVI melanoma,> 100 µM
same,TGI,LOX IMVI melanoma,> 100 µM
same,GI50,M14 melanoma,> 100 µM
same,TGI,M14 melanoma,> 100 µM
same,GI50,MALME-3M melanoma,> 100 µM
same,TGI,MALME-3M melanoma,> 100 µM
same,GI50,MCF7 breast,> 100 µM
same,TGI,MCF7 breast,> 100 µM
same,GI50,MDA-MB-231 breast,> 100 µM
same,TGI,MDA-MB-231 breast,> 100 µM
same,GI50,MDA-MB-435 melanoma,> 100 µM
same,TGI,MDA-MB-435 melanoma,> 100 µM
same,GI50,MDA-MB-468 breast,> 100 µM
same,TGI,MDA-MB-468 breast,> 100 µM
same,GI50,MOLT-4 leukemia,> 100 µM
same,TGI,MOLT-4 leukemia,> 100 µM
same,GI50,NCI-H226 lung,> 100 µM
same,TGI,NCI-H226 lung,> 100 µM
same,GI50,NCI-H23 lung,> 100 µM
same,TGI,NCI-H23 lung,> 100 µM
same,GI50,NCI-H322M lung,> 100 µM
same,TGI,NCI-H322M lung,> 100 µM
same,GI50,NCI-H522 lung,> 100 µM
same,TGI,NCI-H522 lung,> 100 µM
same,GI50,NCI/ADR-RES ovarian,> 100 µM
same,TGI,NCI/ADR-RES ovarian,> 100 µM
same,GI50,OVCAR-3 ovarian,> 100 µM
same,TGI,OVCAR-3 ovarian,> 100 µM
same,GI50,OVCAR-4 ovarian,> 100 µM
same,TGI,OVCAR-4 ovarian,> 100 µM
same,GI50,OVCAR-5 ovarian,> 100 µM
same,TGI,OVCAR-5 ovarian,> 100 µM
same,GI50,OVCAR-8 ovarian,> 100 µM
same,TGI,OVCAR-8 ovarian,> 100 µM
same,GI50,PC-3 prostate,> 100 µM
same,TGI,PC-3 prostate,> 100 µM
same,GI50,RPMI-8226 leukemia,> 100 µM
same,TGI,RPMI-8226 leukemia,> 100 µM
same,GI50,RXF 393 renal,> 100 µM
same,TGI,RXF 393 renal,> 100 µM
same,GI50,SF-268 CNS,> 100 µM
same,TGI,SF-268 CNS,> 100 µM
same,GI50,SF-295 CNS,> 100 µM
same,TGI,SF-295 CNS,> 100 µM
same,GI50,SF-539 CNS,> 100 µM
same,TGI,SF-539 CNS,> 100 µM
same,GI50,SK-MEL-2 melanoma,> 100 µM
same,TGI,SK-MEL-2 melanoma,> 100 µM
same,GI50,SK-MEL-28 melanoma,> 100 µM
same,TGI,SK-MEL-28 melanoma,> 100 µM
same,GI50,SK-OV-3 ovarian,> 100 µM
same,TGI,SK-OV-3 ovarian,> 100 µM
same,GI50,SN12C renal,> 100 µM
same,TGI,SN12C renal,> 100 µM
same,GI50,SNB-19 CNS,> 100 µM
same,TGI,SNB-19 CNS,> 100 µM
same,GI50,SNB-75 CNS,> 100 µM
same,TGI,SNB-75 CNS,> 100 µM
same,GI50,SW-620 colon,> 100 µM
same,TGI,SW-620 colon,> 100 µM
same,GI50,T-47D breast,> 100 µM
same,TGI,T-47D breast,> 100 µM
same,GI50,TK-10 renal,> 100 µM
same,TGI,TK-10 renal,> 100 µM
same,GI50,U251 glioblastoma,> 100 µM
same,TGI,U251 glioblastoma,> 100 µM
same,GI50,UACC-257 melanoma,> 100 µM
same,TGI,UACC-257 melanoma,> 100 µM
same,GI50,UACC-62 melanoma,> 100 µM
same,TGI,UACC-62 melanoma,> 100 µM
same,GI50,UO-31 renal,> 100 µM
same,TGI,UO-31 renal,> 100 µM
